Our source for the Km values is publication doi:10.1101/2023.01.01.522448v1 (biorxiv, 2023).

Molecules are shown by their SMILES.

This assay deals with PrASNase (glutaminase-free recombinant L-asparaginase). The assay is described as follows: Nesslerization. The format is biochemical, Metapseudomonas resinovorans. The following applies: pH 8.6, 37°C; 500 nM enzyme; 2-20 mM substrate.

The Km is the substrate concentration at which the rate is half of its maximum.

With `NC(=O)C[C@H](N)C(=O)O` [L-asparagine], the Km was determined as 9.49 mM.
